# Reference: PubChem BioAssay (NCI)
# Where “and” joins values, the source holds several entries; their conditions need not be identical. Equal entries are not always repeated.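 GI50 = concentration required for 50% inhibition of growth. Definition used: TGI = concentration required for complete inhibition of growth.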
# Tests used:
# Experiment in all cases: NCI-60 cell line screen, 384-well format
# MALME-3M melanoma = system: MALME-3M melanoma
# LOX IMVI melanoma = system: LOX IMVI melanoma
# A498 renal = system: A498 renal
# NCI-H226 lung = system: NCI-H226 lung
# RXF 393 renal = system: RXF 393 renal
# DU-145 prostate = system: DU-145 prostate
# BT-549 breast = system: BT-549 breast
# UO-31 renal = system: UO-31 renal
# NCI-H322M lung = system: NCI-H322M lung
# SNB-75 CNS = system: SNB-75 CNS
# MOLT-4 leukemia = system: MOLT-4 leukemia
# HOP-62 NSCLC = system: HOP-62 NSCLC
# UACC-257 melanoma = system: UACC-257 melanoma
# SW-620 colon = system: SW-620 colon
# HCC-2998 colon = system: HCC-2998 colon
# NCI/ADR-RES ovarian = system: NCI/ADR-RES ovarian
# SK-OV-3 ovarian = system: SK-OV-3 ovarian
# SF-539 CNS = system: SF-539 CNS
# ACHN renal = system: ACHN renal
# SK-MEL-5 melanoma = system: SK-MEL-5 melanoma
# SK-MEL-28 melanoma = system: SK-MEL-28 melanoma
# SK-MEL-2 melanoma = system: SK-MEL-2 melanoma
# SN12C renal = system: SN12C renal
# SNB-19 CNS = system: SNB-19 CNS
# T-47D breast = system: T-47D breast
# TK-10 renal = system: TK-10 renal
# IGROV1 ovarian = system: IGROV1 ovarian
# SF-295 CNS = system: SF-295 CNS
# OVCAR-5 ovarian = system: OVCAR-5 ovarian
# MDA-MB-435 melanoma = system: MDA-MB-435 melanoma
# UACC-62 melanoma = system: UACC-62 melanoma
# HCT-116 colon = system: HCT-116 colon
# NCI-H522 lung = system: NCI-H522 lung
# HT29 colon = system: HT29 colon
# HOP-92 NSCLC = system: HOP-92 NSCLC
# MCF7 breast = system: MCF7 breast
# M14 melanoma = system: M14 melanoma
# HS 578T breast = system: HS 578T breast
# EKVX NSCLC = system: EKVX NSCLC
# MDA-MB-468 breast = system: MDA-MB-468 breast
# CAKI-1 renal = system: CAKI-1 renal
# MDA-MB-231 breast = system: MDA-MB-231 breast
# K-562 leukemia = system: K-562 leukemia
# NCI-H460 NSCLC = system: NCI-H460 NSCLC
# HL-60(TB) leukemia = system: HL-60(TB) leukemia
# RPMI-8226 leukemia = system: RPMI-8226 leukemia
# KM12 colon = system: KM12 colon
# NCI-H23 lung = system: NCI-H23 lung
# PC-3 prostate = system: PC-3 prostate
# 786-0 renal = system: 786-0 renal
# U251 glioblastoma = system: U251 glioblastoma
# SR leukemia = system: SR leukemia
# COLO 205 colon = system: COLO 205 colon
# CCRF-CEM leukemia = system: CCRF-CEM leukemia
# HCT-15 colon = system: HCT-15 colon
# A549 NSCLC = system: A549 NSCLC
# SF-268 CNS = system: SF-268 CNS
# OVCAR-4 ovarian = system: OVCAR-4 ovarian
# OVCAR-3 ovarian = system: OVCAR-3 ovarian
smiles,measurement,setting,value
CC1Cc2ccccc2N1C(=O)Cc1nc(N2CCOCC2)cc(=O)[nH]1 (stereo not drawn),GI50,MALME-3M melanoma,14.3 µM and 23.3 µM
same,TGI,MALME-3M melanoma,97.1 µM and > 100 µM
same,GI50,LOX IMVI melanoma,14.5 µM and 50.9 µM
same,TGI,LOX IMVI melanoma,42.4 µM and > 100 µM
same,GI50,A498 renal,0.286 µM and 1.34 µM
same,TGI,A498 renal,2.47 µM and 7.74 µM
same,GI50,NCI-H226 lung,63.2 µM and 65.3 µM
same,TGI,NCI-H226 lung,> 100 µM
same,GI50,RXF 393 renal,0.266 µM and 1.16 µM
same,TGI,RXF 393 renal,3.44 µM and 15 µM
same,GI50,DU-145 prostate,14.2 µM and 34.2 µM
same,TGI,DU-145 prostate,> 100 µM
same,GI50,BT-549 breast,2.46 µM and 11.6 µM
same,TGI,BT-549 breast,45.6 µM and > 100 µM
same,GI50,UO-31 renal,4.59 µM and 14 µM
same,TGI,UO-31 renal,> 100 µM and 45.6 µM
same,GI50,NCI-H322M lung,12.5 µM and 38.2 µM
same,TGI,NCI-H322M lung,99.7 µM and > 100 µM
same,GI50,SNB-75 CNS,0.561 µM and 3.1 µM
same,TGI,SNB-75 CNS,25.4 µM and 40.2 µM
same,GI50,MOLT-4 leukemia,4.69 µM and 15 µM
same,TGI,MOLT-4 leukemia,20.4 µM and 41 µM
same,GI50,HOP-62 NSCLC,20.6 µM and 33.5 µM
same,TGI,HOP-62 NSCLC,> 100 µM
same,GI50,UACC-257 melanoma,47.9 µM and > 100 µM
same,TGI,UACC-257 melanoma,> 100 µM
same,GI50,SW-620 colon,64.3 µM and > 100 µM
same,TGI,SW-620 colon,> 100 µM
same,GI50,HCC-2998 colon,4.86 µM and 33 µM
same,TGI,HCC-2998 colon,75.2 µM and > 100 µM
same,GI50,NCI/ADR-RES ovarian,> 100 µM
same,TGI,NCI/ADR-RES ovarian,> 100 µM
same,GI50,SK-OV-3 ovarian,8.17 µM and 16.2 µM
same,TGI,SK-OV-3 ovarian,> 100 µM
same,GI50,SF-539 CNS,22.4 µM and 59.7 µM
same,TGI,SF-539 CNS,> 100 µM
same,GI50,ACHN renal,5.56 µM and 17.4 µM
same,TGI,ACHN renal,> 100 µM
same,GI50,SK-MEL-5 melanoma,20.2 µM and 33.2 µM
same,TGI,SK-MEL-5 melanoma,> 100 µM
same,GI50,SK-MEL-28 melanoma,6.88 µM and 26.8 µM
same,TGI,SK-MEL-28 melanoma,> 100 µM
same,GI50,SK-MEL-2 melanoma,63.2 µM and > 100 µM
same,TGI,SK-MEL-2 melanoma,> 100 µM
same,GI50,SN12C renal,4.74 µM and 22.6 µM
same,TGI,SN12C renal,> 100 µM
same,GI50,SNB-19 CNS,> 100 µM
same,TGI,SNB-19 CNS,> 100 µM
same,GI50,T-47D breast,3.31 µM and 11.2 µM
same,TGI,T-47D breast,65 µM and 75.2 µM
same,GI50,TK-10 renal,7.25 µM and 25.3 µM
same,TGI,TK-10 renal,> 100 µM
same,GI50,IGROV1 ovarian,1.72 µM and 7.93 µM
same,TGI,IGROV1 ovarian,7.96 µM and 32.8 µM
same,GI50,SF-295 CNS,5.17 µM and 17.9 µM
same,TGI,SF-295 CNS,> 100 µM
same,GI50,OVCAR-5 ovarian,18.9 µM and 58.3 µM
same,TGI,OVCAR-5 ovarian,> 100 µM
same,GI50,MDA-MB-435 melanoma,> 100 µM and 85.3 µM
same,TGI,MDA-MB-435 melanoma,> 100 µM
same,GI50,UACC-62 melanoma,9.61 µM and 32.7 µM
same,TGI,UACC-62 melanoma,> 100 µM
same,GI50,HCT-116 colon,16.3 µM and 52.1 µM
same,TGI,HCT-116 colon,> 100 µM
same,GI50,NCI-H522 lung,25.2 µM and 57.7 µM
same,TGI,NCI-H522 lung,> 100 µM
same,GI50,HT29 colon,9.87 µM and 49.4 µM
same,TGI,HT29 colon,29.7 µM and > 100 µM
same,GI50,HOP-92 NSCLC,8.04 µM and 25.3 µM
same,TGI,HOP-92 NSCLC,> 100 µM
same,GI50,MCF7 breast,3.23 µM and 14.9 µM
same,TGI,MCF7 breast,> 100 µM
same,GI50,M14 melanoma,> 100 µM and 71 µM
same,TGI,M14 melanoma,> 100 µM
same,GI50,HS 578T breast,3.8 µM and 13.4 µM
same,TGI,HS 578T breast,23.1 µM and 58.3 µM
same,GI50,EKVX NSCLC,5.5 µM and 15.9 µM
same,TGI,EKVX NSCLC,38.9 µM and 98.9 µM
same,GI50,MDA-MB-468 breast,3.31 µM and 15.1 µM
same,TGI,MDA-MB-468 breast,17.7 µM and 65.7 µM
same,GI50,CAKI-1 renal,4.84 µM and 12.7 µM
same,TGI,CAKI-1 renal,> 100 µM
same,GI50,MDA-MB-231 breast,22.5 µM and 51.2 µM
same,TGI,MDA-MB-231 breast,> 100 µM
same,GI50,K-562 leukemia,37.8 µM and 78.3 µM
same,TGI,K-562 leukemia,> 100 µM
same,GI50,NCI-H460 NSCLC,8.38 µM and 29.9 µM
same,TGI,NCI-H460 NSCLC,> 100 µM
same,GI50,HL-60(TB) leukemia,3.35 µM and 10.3 µM
same,TGI,HL-60(TB) leukemia,24.7 µM and > 100 µM
same,GI50,RPMI-8226 leukemia,11.8 µM and 36.3 µM
same,TGI,RPMI-8226 leukemia,24.9 µM and > 100 µM
same,GI50,KM12 colon,13.5 µM and 72 µM
same,TGI,KM12 colon,34.4 µM and > 100 µM
same,GI50,NCI-H23 lung,37.6 µM and > 100 µM
same,TGI,NCI-H23 lung,> 100 µM
same,GI50,PC-3 prostate,1.86 µM and 4.92 µM
same,TGI,PC-3 prostate,> 100 µM
same,GI50,786-0 renal,3.31 µM and 17.8 µM
same,TGI,786-0 renal,> 100 µM
same,GI50,U251 glioblastoma,67.8 µM and > 100 µM
same,TGI,U251 glioblastoma,> 100 µM
same,GI50,SR leukemia,14.3 µM and 21.4 µM
same,TGI,SR leukemia,28.4 µM and 62.9 µM
same,GI50,COLO 205 colon,53.8 µM and > 100 µM
same,TGI,COLO 205 colon,> 100 µM
same,GI50,CCRF-CEM leukemia,23.1 µM and 61.7 µM
same,TGI,CCRF-CEM leukemia,> 100 µM
same,GI50,HCT-15 colon,24.1 µM and 37.9 µM
same,TGI,HCT-15 colon,> 100 µM
same,GI50,A549 NSCLC,16.2 µM and 32.4 µM
same,TGI,A549 NSCLC,> 100 µM
same,GI50,SF-268 CNS,18.5 µM and 49.8 µM
same,TGI,SF-268 CNS,> 100 µM
same,GI50,OVCAR-4 ovarian,> 100 µM and 74.9 µM
same,TGI,OVCAR-4 ovarian,> 100 µM
same,GI50,OVCAR-3 ovarian,2.41 µM and 8.56 µM
same,TGI,OVCAR-3 ovarian,24.6 µM and > 100 µM
